{
  "source": "PubChem BioAssay AID2060885",
  "about": "(Molecular Pharmacology Branch, DTP, NCI, 2025)",
  "tested_on": "NCI-H23 complex spheroids with HUVEC/MSC, viability",
  "assay": "Anticancer human tumor NCI-H23 cell line growth inhibition [RAS];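 note: spheroids exposed to compound for 7 days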;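 for viability, T/C: 100% = DMSO vehicle control viability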",
  "details": "for pIC50: curve of first compound; for viability, T/C: stronger effect = lower value",
  "how_it_was_run": "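Multi-cell-type spheroids: tumor cells plus HUVEC endothelial cells and mesenchymal stem cells. RAS-pathway inhibitors were combined with targeted agents, each dosed in half-log steps down from clinical Cmax, or from 10 microM when Cmax was unknown.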",
  "note": "pIC50: −log10 of the molar value.",
  "data": [
    {"smiles": "CC(=O)OC12COC1CC(O)C1(C)C(=O)C(O)C3=C(C)C(OC(=O)C(O)C(NC(=O)OC(C)(C)C)c4ccccc4)CC(O)(C(OC(=O)c4ccccc4)C21)C3(C)C", "note": "(configuration not stated) + CCn1c(-c2cccnc2C(C)OC)c2c3cc(ccc31)N1CCOC(CC(NC(=O)C(C(C)C)N(C)C(=O)C3(F)CCN(C(=O)C#CC(C)(C)N(C)C)CC3)C(=O)N3CCCC(N3)C(=O)OCC(C)(C)C2)C1", "values": [
      {"measurement": "pIC50", "setting": "second compound 0.000949 µM", "value": "> 7.50"},
      {"measurement": "pIC50", "setting": "second compound 0.003 µM", "value": "> 7.50"},
      {"measurement": "pIC50", "setting": "second compound 0.00949 µM", "value": "> 7.50"},
      {"measurement": "pIC50", "setting": "second compound 0.03 µM", "value": "> 7.50"},
      {"measurement": "pIC50", "setting": "second compound 0.0949 µM", "value": "> 7.50"},
      {"measurement": "pIC50", "setting": "second compound 0.3 µM", "value": "> 7.50"},
      {"measurement": "viability, T/C", "setting": "second compound 0.000949 µM, first compound 0.0316 µM", "value": 10.4, "unit": "%"},
      {"measurement": "viability, T/C", "setting": "second compound 0.000949 µM, first compound 0.1 µM", "value": 12.4, "unit": "%"},
      {"measurement": "viability, T/C", "setting": "second compound 0.000949 µM, first compound 0.316 µM", "value": 9.29, "unit": "%"},
      {"measurement": "viability, T/C", "setting": "second compound 0.000949 µM, first compound 1 µM", "value": 12.5, "unit": "%"},
      {"measurement": "viability, T/C", "setting": "second compound 0.000949 µM, first compound 3.16 µM", "value": 17.6, "unit": "%"},
      {"measurement": "viability, T/C", "setting": "second compound 0.000949 µM, first compound 10 µM", "value": 17.5, "unit": "%"},
      {"measurement": "viability, T/C", "setting": "second compound 0.003 µM, first compound 0.0316 µM", "value": 11.3, "unit": "%"},
      {"measurement": "viability, T/C", "setting": "second compound 0.003 µM, first compound 0.1 µM", "value": 10.6, "unit": "%"},
      {"measurement": "viability, T/C", "setting": "second compound 0.003 µM, first compound 0.316 µM", "value": 10.2, "unit": "%"},
      {"measurement": "viability, T/C", "setting": "second compound 0.003 µM, first compound 1 µM", "value": 11.5, "unit": "%"},
      {"measurement": "viability, T/C", "setting": "second compound 0.003 µM, first compound 3.16 µM", "value": 17, "unit": "%"},
      {"measurement": "viability, T/C", "setting": "second compound 0.003 µM, first compound 10 µM", "value": 14.2, "unit": "%"},
      {"measurement": "viability, T/C", "setting": "second compound 0.00949 µM, first compound 0.0316 µM", "value": 9.65, "unit": "%"},
      {"measurement": "viability, T/C", "setting": "second compound 0.00949 µM, first compound 0.1 µM", "value": 8.65, "unit": "%"},
      {"measurement": "viability, T/C", "setting": "second compound 0.00949 µM, first compound 0.316 µM", "value": 11.5, "unit": "%"},
      {"measurement": "viability, T/C", "setting": "second compound 0.00949 µM, first compound 1 µM", "value": 11, "unit": "%"},
      {"measurement": "viability, T/C", "setting": "second compound 0.00949 µM, first compound 3.16 µM", "value": 12.8, "unit": "%"},
      {"measurement": "viability, T/C", "setting": "second compound 0.00949 µM, first compound 10 µM", "value": 15.8, "unit": "%"},
      {"measurement": "viability, T/C", "setting": "second compound 0.03 µM, first compound 0.0316 µM", "value": 9.84, "unit": "%"},
      {"measurement": "viability, T/C", "setting": "second compound 0.03 µM, first compound 0.1 µM", "value": 8.29, "unit": "%"},
      {"measurement": "viability, T/C", "setting": "second compound 0.03 µM, first compound 0.316 µM", "value": 10.2, "unit": "%"},
      {"measurement": "viability, T/C", "setting": "second compound 0.03 µM, first compound 1 µM", "value": 9.41, "unit": "%"},
      {"measurement": "viability, T/C", "setting": "second compound 0.03 µM, first compound 3.16 µM", "value": 11.5, "unit": "%"},
      {"measurement": "viability, T/C", "setting": "second compound 0.03 µM, first compound 10 µM", "value": 16.5, "unit": "%"},
      {"measurement": "viability, T/C", "setting": "second compound 0.0949 µM, first compound 0.0316 µM", "value": 8.35, "unit": "%"},
      {"measurement": "viability, T/C", "setting": "second compound 0.0949 µM, first compound 0.1 µM", "value": 8.9, "unit": "%"},
      {"measurement": "viability, T/C", "setting": "second compound 0.0949 µM, first compound 0.316 µM", "value": 8.97, "unit": "%"},
      {"measurement": "viability, T/C", "setting": "second compound 0.0949 µM, first compound 1 µM", "value": 9.36, "unit": "%"},
      {"measurement": "viability, T/C", "setting": "second compound 0.0949 µM, first compound 3.16 µM", "value": 9.42, "unit": "%"},
      {"measurement": "viability, T/C", "setting": "second compound 0.0949 µM, first compound 10 µM", "value": 16.1, "unit": "%"},
      {"measurement": "viability, T/C", "setting": "second compound 0.3 µM, first compound 0.0316 µM", "value": 6.76, "unit": "%"},
      {"measurement": "viability, T/C", "setting": "second compound 0.3 µM, first compound 0.1 µM", "value": 6.43, "unit": "%"},
      {"measurement": "viability, T/C", "setting": "second compound 0.3 µM, first compound 0.316 µM", "value": 7.66, "unit": "%"},
      {"measurement": "viability, T/C", "setting": "second compound 0.3 µM, first compound 1 µM", "value": 8.04, "unit": "%"},
      {"measurement": "viability, T/C", "setting": "second compound 0.3 µM, first compound 3.16 µM", "value": 9.25, "unit": "%"},
      {"measurement": "viability, T/C", "setting": "second compound 0.3 µM, first compound 10 µM", "value": 12.2, "unit": "%"}
    ]}
  ]
}
